Measurements reported in ChEMBL document CHEMBL5331139, “First-in-Class Dual Targeting Compounds for the Management of Seizures in Glucose Transporter Type 1 Deficiency Syndrome” (J Med Chem, 2023).

Assays:
Carbonic anhydrase 1 = Carbonic anhydrase 1 (Homo sapiens, UniProt P00915)
Description: Binding affinity to human recombinant carbonic anhydrase 1 assessed as inhibition constant incubated for 15 mins by phenol red based stopped-flow CO2 hydration assay

Carbonic anhydrase 2 = Carbonic anhydrase 2 (Homo sapiens, UniProt P00918)
Description: Binding affinity to human recombinant carbonic anhydrase 2 assessed as inhibition constant incubated for 15 mins by phenol red based stopped-flow CO2 hydration assay

Carbonic anhydrase 4 = Carbonic anhydrase 4 (Homo sapiens, UniProt P22748)
Description: Binding affinity to human recombinant carbonic anhydrase 4 assessed as inhibition constant incubated for 15 mins by phenol red based stopped-flow CO2 hydration assay

[1] = target: Carbonic anhydrase 5A, mitochondrial (Homo sapiens, UniProt P35218)
Chain of Carbonic anhydrase 5A, mitochondrial (P35218 whole entry): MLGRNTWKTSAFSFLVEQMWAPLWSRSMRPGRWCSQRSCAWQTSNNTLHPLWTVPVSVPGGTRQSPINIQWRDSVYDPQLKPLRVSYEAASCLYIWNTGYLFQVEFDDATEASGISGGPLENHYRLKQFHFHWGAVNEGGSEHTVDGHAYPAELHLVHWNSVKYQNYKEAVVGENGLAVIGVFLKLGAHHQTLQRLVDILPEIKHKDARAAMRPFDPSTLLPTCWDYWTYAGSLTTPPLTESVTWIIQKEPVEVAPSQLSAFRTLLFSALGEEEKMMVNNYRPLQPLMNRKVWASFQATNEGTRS
Description: Binding affinity to human recombinant carbonic anhydrase 5A assessed as inhibition constant incubated for 15 mins by phenol red based stopped-flow CO2 hydration assay

[2] = target: Carbonic anhydrase 5B, mitochondrial (Homo sapiens, UniProt Q9Y2D0)
Chain of Carbonic anhydrase 5B, mitochondrial (Q9Y2D0 whole entry): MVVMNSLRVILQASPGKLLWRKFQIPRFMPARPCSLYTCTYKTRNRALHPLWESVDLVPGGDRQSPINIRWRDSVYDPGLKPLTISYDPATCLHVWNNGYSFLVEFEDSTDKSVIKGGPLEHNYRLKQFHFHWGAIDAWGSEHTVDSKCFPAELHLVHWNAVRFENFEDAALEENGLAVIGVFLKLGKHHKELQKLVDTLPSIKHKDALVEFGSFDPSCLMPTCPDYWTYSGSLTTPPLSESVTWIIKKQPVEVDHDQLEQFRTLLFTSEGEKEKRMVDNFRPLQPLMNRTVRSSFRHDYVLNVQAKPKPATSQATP
Description: Binding affinity to human recombinant carbonic anhydrase 5B assessed as inhibition constant incubated for 15 mins by phenol red based stopped-flow CO2 hydration assay

Carbonic anhydrase 7 = Carbonic anhydrase 7 (Homo sapiens, UniProt P43166)
Chain of Carbonic anhydrase 7 (P43166 whole entry): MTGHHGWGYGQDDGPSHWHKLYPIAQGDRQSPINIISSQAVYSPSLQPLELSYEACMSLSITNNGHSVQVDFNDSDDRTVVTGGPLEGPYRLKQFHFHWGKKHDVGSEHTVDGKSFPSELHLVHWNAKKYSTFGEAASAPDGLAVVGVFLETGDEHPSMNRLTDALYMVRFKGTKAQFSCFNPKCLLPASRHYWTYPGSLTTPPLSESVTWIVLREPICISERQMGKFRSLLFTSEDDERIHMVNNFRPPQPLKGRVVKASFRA
Description: Binding affinity to human recombinant carbonic anhydrase 7 assessed as inhibition constant incubated for 15 mins by phenol red based stopped-flow CO2 hydration assay

Carbonic anhydrase 12 = Carbonic anhydrase 12 (Homo sapiens, UniProt O43570)
Chain of Carbonic anhydrase 12 (O43570 whole entry): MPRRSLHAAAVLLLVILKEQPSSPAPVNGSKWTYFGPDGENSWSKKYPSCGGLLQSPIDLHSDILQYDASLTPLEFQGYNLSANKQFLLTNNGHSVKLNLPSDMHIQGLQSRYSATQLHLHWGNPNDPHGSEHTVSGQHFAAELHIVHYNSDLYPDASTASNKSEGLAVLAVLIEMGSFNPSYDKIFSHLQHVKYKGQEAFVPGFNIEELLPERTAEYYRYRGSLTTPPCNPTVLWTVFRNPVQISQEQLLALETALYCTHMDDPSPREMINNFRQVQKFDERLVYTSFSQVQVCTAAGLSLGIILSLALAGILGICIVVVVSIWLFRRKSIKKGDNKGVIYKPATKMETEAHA
Description: Binding affinity to human recombinant carbonic anhydrase 12 assessed as inhibition constant incubated for 15 mins by phenol red based stopped-flow CO2 hydration assay

in vivo [3] = conditions: C57BL/6, mouse, 300 mg/kg
Description: Toxicity in MES induced C57BL/6 mouse model assessed as animal death at 300 mg/kg

in vivo [4] = conditions: C57BL/6, mouse, 200 mg/kg
Description: Toxicity in MES induced C57BL/6 mouse model assessed as mortality at 200 mg/kg

Chain of Carbonic anhydrase 4 (P22748 whole entry): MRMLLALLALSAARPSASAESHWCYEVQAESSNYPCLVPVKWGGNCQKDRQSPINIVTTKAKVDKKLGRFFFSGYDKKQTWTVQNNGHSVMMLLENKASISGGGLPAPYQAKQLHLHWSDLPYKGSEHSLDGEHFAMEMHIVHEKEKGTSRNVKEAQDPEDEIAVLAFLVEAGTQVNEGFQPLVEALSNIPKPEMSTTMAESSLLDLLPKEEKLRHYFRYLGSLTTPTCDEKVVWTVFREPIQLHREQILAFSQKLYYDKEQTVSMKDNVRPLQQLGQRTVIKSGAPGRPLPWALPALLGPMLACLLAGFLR
Chain of Carbonic anhydrase 1 (P00915 whole entry): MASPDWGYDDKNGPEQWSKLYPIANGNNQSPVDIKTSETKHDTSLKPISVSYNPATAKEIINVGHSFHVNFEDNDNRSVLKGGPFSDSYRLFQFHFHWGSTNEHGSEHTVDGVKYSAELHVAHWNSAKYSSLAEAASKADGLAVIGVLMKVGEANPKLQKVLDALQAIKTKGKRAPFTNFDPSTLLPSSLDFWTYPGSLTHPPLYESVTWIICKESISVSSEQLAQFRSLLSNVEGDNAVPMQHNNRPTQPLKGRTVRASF

Structure (SMILES) | Ki (Carbonic anhydrase 1) [nM] | Ki (Carbonic anhydrase 2) [nM] | Ki (Carbonic anhydrase 4) [nM] | Ki [1] [nM] | Ki [2] [nM] | Ki (Carbonic anhydrase 7) [nM] | Ki (Carbonic anhydrase 12) [nM] | mortality (in vivo [3]) [%] | mortality (in vivo [4]) [%]
CC(=O)OC[C@H]1O[C@@H]([Se]c2ccc(S(N)(=O)=O)cc2)[C@H](OC(C)=O)[C@@H](OC(C)=O)[C@@H]1OC(C)=O | 80.3 | 41.4 | 4120 | 596 | 707 | 14.6 | 9440 | 20 | –
NS(=O)(=O)c1ccc([Se][C@@H]2O[C@H](CO)[C@H](O)[C@H](O)[C@H]2O)cc1 | 647 | 53.7 | 580 | 427 | 8.7 | 30.3 | 82.4 | – | –
NS(=O)(=O)c1ccc([Se][C@@H]2O[C@H](CO)[C@@H](O)[C@H](O)[C@H]2O)cc1 | 541 | 13.8 | 647 | 325 | 87.3 | 263 | 589 | – | –
Nc1cc([Se][C@@H]2O[C@H](CO)[C@@H](O)[C@H](O)[C@H]2O)ccc1S(N)(=O)=O | 7680 | 4010 | > 10000 | 2300 | > 10000 | > 10000 | 2560 | – | –
NS(=O)(=O)c1ccc(C(=O)Nc2ccc([Se][C@@H]3O[C@H](CO)[C@@H](O)[C@H](O)[C@H]3O)cc2)cc1 | 46.4 | 6.1 | 8.9 | 45.1 | 3 | 0.9 | 7.2 | – | –
CC(=O)O[C@@H]1[C@@H](OC(C)=O)[C@H]([Se]c2ccc(S(N)(=O)=O)cc2)O[C@H](CO)[C@H]1OC(C)=O | 78.4 | 3.7 | 67.1 | 736 | 5.5 | 4.1 | 5.9 | – | –
CC(=O)OC[C@H]1O[C@@H]([Se]c2ccc(S(N)(=O)=O)c(N)c2)[C@H](OC(C)=O)[C@@H](OC(C)=O)[C@@H]1OC(C)=O | > 10000 | 6290 | > 10000 | 2540 | > 10000 | > 10000 | > 10000 | – | –
NS(=O)(=O)c1cc(C(=O)Nc2ccc([Se][C@@H]3O[C@H](CO)[C@H](O)[C@H](O)[C@H]3O)cc2)ccc1Cl | 637 | 14.8 | 77.7 | 215 | 21.9 | 29.7 | 88.7 | – | –
CC(=O)OC[C@H]1O[C@@H]([Se]c2ccc(NC(=S)Nc3ccc(S(N)(=O)=O)cc3)cc2)[C@H](OC(C)=O)[C@@H](OC(C)=O)[C@@H]1OC(C)=O | 53.1 | 6.3 | 555 | 254 | 8.9 | 1.8 | 55.8 | – | –
NS(=O)(=O)c1ccc(S(=O)(=O)[C@@H]2O[C@H](CO)[C@@H](O)[C@H](O)[C@H]2O)cc1 | – | – | – | – | 4.2 | 2.2 | – | – | –
CC(=O)OC[C@H]1O[C@@H]([Se]c2ccc(S(N)(=O)=O)c(N)c2)[C@H](OC(C)=O)[C@@H](OC(C)=O)[C@H]1OC(C)=O | 9600 | 6320 | > 10000 | 6570 | 406 | > 10000 | > 10000 | – | –
NS(=O)(=O)c1ccc(NC(=S)Nc2ccc([Se][C@@H]3O[C@H](CO)C(O)[C@H](O)[C@H]3O)cc2)cc1 (single isomer, unassigned; 16a) | 71.4 | 5.2 | 283 | 70.5 | 7.6 | 4.4 | 19.8 | – | 30
NS(=O)(=O)c1ccc(NC(=S)Nc2ccc([Se][C@@H]3O[C@H](CO)C(O)[C@H](O)[C@H]3O)cc2)cc1 (single isomer, unassigned; 16b) | 41.5 | 4.5 | 77.7 | 358 | 6.2 | 0.9 | 9.1 | – | –

The remaining molecules from weak to strong by Ki [2], led by results:

Ki (Carbonic anhydrase 1) [nM] | Ki (Carbonic anhydrase 2) [nM] | Ki (Carbonic anhydrase 4) [nM] | Ki [1] [nM] | Ki [2] [nM] | Ki (Carbonic anhydrase 7) [nM] | Ki (Carbonic anhydrase 12) [nM] | Structure (SMILES) | mortality (in vivo [3]) [%] | mortality (in vivo [4]) [%]
6820 | 6660 | 7280 | 236 | 172 | > 10000 | > 10000 | CC(=O)O[C@H]1[C@@H](OC(C)=O)[C@@H](CO)O[C@@H]([Se]c2ccc(S(N)(=O)=O)c(N)c2)[C@@H]1OC(C)=O | – | –
48 | 1.7 | 348 | 120 | 88 | 9.6 | 90.5 | NS(=O)(=O)c1ccc(C(=O)Nc2ccc([Se][C@@H]3O[C@H](CO)[C@H](O)[C@H](O)[C@H]3O)cc2)cc1 | – | –
> 10000 | 214 | 1570 | 348 | 40.9 | 87.3 | > 10000 | CC(=O)OC[C@H]1O[C@@H]([Se]c2ccc(NC(=O)c3ccc(Cl)c(S(N)(=O)=O)c3)cc2)[C@H](OC(C)=O)[C@@H](OC(C)=O)[C@@H]1OC(C)=O | – | –
85.2 | 5.1 | 378 | 90.6 | 8.7 | 2.8 | 9.4 | CC(=O)OC[C@H]1O[C@@H]([Se]c2ccc(NC(=O)c3ccc(S(N)(=O)=O)cc3)cc2)[C@H](OC(C)=O)[C@@H](OC(C)=O)[C@@H]1OC(C)=O | – | –
95.8 | 4.1 | 344 | 87.2 | 6.6 | 0.5 | 804 | CC(=O)OC[C@H]1O[C@@H]([Se]c2ccc(S(N)(=O)=O)cc2)[C@H](OC(C)=O)[C@@H](OC(C)=O)[C@H]1OC(C)=O | – | –
48.1 | 6.6 | 362 | 482 | 4.7 | 2 | 34.2 | CC(=O)OC[C@H]1O[C@@H]([Se]c2ccc(NC(=S)Nc3ccc(S(N)(=O)=O)cc3)cc2)[C@H](OC(C)=O)[C@@H](OC(C)=O)[C@H]1OC(C)=O | – | –
51.4 | 4 | 30.8 | 57.4 | 4 | 0.7 | 5.6 | CC(=O)OC[C@H]1O[C@@H]([Se]c2ccc(NC(=O)c3ccc(S(N)(=O)=O)cc3)cc2)[C@H](OC(C)=O)[C@@H](OC(C)=O)[C@H]1OC(C)=O | – | –
86.2 | 17.2 | 146 | 96.8 | 2.6 | 0.8 | 42.3 | CC(=O)O[C@H]1[C@@H](OC(C)=O)[C@@H](CO)O[C@@H]([Se]c2ccc(S(N)(=O)=O)cc2)[C@@H]1OC(C)=O | – | –
